Laboratory results published in PMC10997755, “Discovery of a small-molecule inhibitor that traps Polθ on DNA and synergizes with PARP inhibitors” (Nature Communications, 2024).
Values joined by “and” are separate entries in the source; they are usually repeats but may differ in a detail not shown here. Equal values may be shown once. “Also recorded” adds a separate entry of the source.

Experiments:
DLD1 BRCA2 -/- cells = experiment: Clonogenic assay; type: cell-based; settings: for Average number of colonies counted / Normalized (colonies): DLD1 BRCA2 NULL, 3 treatments were given; for average / percent suvival / replicate counts: DLD1-BRCA2 null cells
In short: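 Cells seeded at low density (300–1000 per well, by plate size and genotype), medium changed every 2 days, colonies grown 10–12 days. Fixed in water:ethanol:acetic acid, stained with 0.5% crystal violet, then counted; IC50 from ≥3 independent experiments, mean ± SEM.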

Polθ-pol = molecular target: T1, Polθ-pol (Homo sapiens, UniProt O75417); experiment: Cy5 fluorescence Polθ-pol DNA synthesis (strand displacement) IC50 assay; type: biochemical; settings: Polθ-pol DNA synthesis, Cy5 fluorescence
T1 construct: purified recombinant human Polθ-pol (comprising amino acid residues 1792–2590); made in house
T1 sequence (O75417 1792-2590): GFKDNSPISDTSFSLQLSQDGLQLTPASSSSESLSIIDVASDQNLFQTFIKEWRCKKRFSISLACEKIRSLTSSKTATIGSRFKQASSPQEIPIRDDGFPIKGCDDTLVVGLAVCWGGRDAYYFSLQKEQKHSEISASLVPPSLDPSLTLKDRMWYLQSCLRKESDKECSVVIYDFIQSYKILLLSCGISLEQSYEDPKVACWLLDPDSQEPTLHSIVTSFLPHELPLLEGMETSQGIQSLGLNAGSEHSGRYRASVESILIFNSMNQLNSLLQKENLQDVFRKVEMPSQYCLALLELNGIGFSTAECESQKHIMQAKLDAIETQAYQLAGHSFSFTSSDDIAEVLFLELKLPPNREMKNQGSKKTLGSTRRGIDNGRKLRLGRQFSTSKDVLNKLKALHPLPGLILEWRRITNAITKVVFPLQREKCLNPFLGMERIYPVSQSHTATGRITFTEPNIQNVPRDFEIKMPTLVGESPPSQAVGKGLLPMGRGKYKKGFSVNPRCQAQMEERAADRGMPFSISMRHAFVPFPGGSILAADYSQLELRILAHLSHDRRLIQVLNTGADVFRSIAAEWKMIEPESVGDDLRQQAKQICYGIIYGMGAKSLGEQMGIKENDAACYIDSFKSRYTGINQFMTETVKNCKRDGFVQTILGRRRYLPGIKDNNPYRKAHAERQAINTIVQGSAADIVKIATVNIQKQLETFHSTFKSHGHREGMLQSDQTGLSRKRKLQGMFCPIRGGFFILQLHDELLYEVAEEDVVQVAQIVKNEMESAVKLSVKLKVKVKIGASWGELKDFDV
In short: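 Recombinant human Polθ-pol (aa 1792–2590, 5 nM) extends 60 nM Cy5/quencher primer-template with 50 uM dNTPs in 25 mM Tris pH 7.8, 10 mM MgCl2, 2.5% DMSO at 37 °C. After 18 min, stopped with 20 mM EDTA; Cy5 fluorescence read, 7-point series in triplicate, inhibition from the mean.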

DLD1 Parental cells = experiment: Clonogenic assay; type: cell-based; settings: DLD1 PARENTAL, 3 treatments were given
In short: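 Colony formation by BRCA-deficient, PALB2-mutant and wild-type cells (300–1000 cells/well) and MEFs (300 cells/well) over 10–12 days, medium changed every 2 days. Colonies fixed, stained with 0.5% crystal violet and counted; IC50 from 3 or more independent experiments.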

LogP = type: physicochemical; settings: method not stated
[1] = RTX-152 1.25 micro M + OLA 3.125 nano M
[2] = RTX-152 1.25 micro M + OLA 6.25 nano M
[3] = RTX-152 1.25 micro M + OLA 12.50 nano M
[4] = RTX-152 1.25 micro M + OLA 25.00 nano M
[5] = RTX-152 1.25 micro M + OLA 50.00 nano M
[6] = RTX-152 1.25 micro M + OLA 100.00 nano M
[7] = RTX-152 1.25 micro M, OLA 0.00 nano M
[8] = RTX-152 2.5 micro M + OLA 3.125 nano M
[9] = RTX-152 2.5 micro M + OLA 6.25 nano M
[10] = RTX-152 2.5 micro M + OLA 12.50 nano M
[11] = RTX-152 2.5 micro M + OLA 25.00 nano M
[12] = RTX-152 2.5 micro M + OLA 50.00 nano M
[13] = RTX-152 2.5 micro M + OLA 100.00 nano M
[14] = RTX-152 2.5 micro M, OLA 0.00 nano M
[15] = RTX-152 5 micro M + OLA 3.125 nano M
[16] = RTX-152 5 micro M + OLA 6.25 nano M
[17] = RTX-152 5 micro M + OLA 12.50 nano M
[18] = RTX-152 5 micro M + OLA 25.00 nano M
[19] = RTX-152 5 micro M + OLA 50.00 nano M
[20] = RTX-152 5 micro M + OLA 100.00 nano M
[21] = RTX-152 5 micro M, OLA 0.00 nano M

## CN1CCN(c2cc(C(F)(F)F)cc(C(F)(F)F)c2OC(=O)N(C)c2ccc(F)cc2)C1=O [RTx-152]
DLD1 BRCA2 -/- cells; 2.5 micro M
  Average number of colonies counted: 47.3333
  Normalized (colonies): 65.5172
DLD1 BRCA2 -/- cells; 5 micro M
  Average number of colonies counted: 40.3333
  Normalized (colonies): 54.4828
DLD1 BRCA2 -/- cells; 10 micro M
  Average number of colonies counted: 22.6667
  Normalized (colonies): 31.0345
DLD1 BRCA2 -/- cells; 20 micro M
  Average number of colonies counted: 15
  Normalized (colonies): 20.6897
DLD1 BRCA2 -/- cells; Homo sapiens, DLD-1, read-out: IC50 clonogenic survival
  IC50: ~6000 nM
DLD1 BRCA2 -/- cells; [1]
  average: 78.6667
  percent suvival: 75.8842%
  replicate counts: 75 and 82 and 79
DLD1 BRCA2 -/- cells; [2]
  average: 66.6667
  percent suvival: 64.3087%
  replicate counts: 67 and 70 and 63
DLD1 BRCA2 -/- cells; [3]
  average: 40
  percent suvival: 38.5852%
  replicate counts: 36 and 44 and 40
DLD1 BRCA2 -/- cells; [4]
  average: 32.6667
  percent suvival: 31.5113%
  replicate counts: 35 and 31 and 32
DLD1 BRCA2 -/- cells; [5]
  average: 20
  percent suvival: 19.2926%
  replicate counts: 22 and 20 and 18
DLD1 BRCA2 -/- cells; [6]
  average: 11
  percent suvival: 10.6109%
  replicate counts: 8 and 11 and 14
DLD1 BRCA2 -/- cells; [7]
  average: 95
  percent suvival: 91.6399%
  replicate counts: 91 and 96 and 98
DLD1 BRCA2 -/- cells; [8]
  average: 71
  percent suvival: 68.4887%
  replicate counts: 68 and 70 and 75
DLD1 BRCA2 -/- cells; [9]
  average: 51
  percent suvival: 49.1961%
  replicate counts: 54 and 47 and 52
DLD1 BRCA2 -/- cells; [10]
  average: 37.6667
  percent suvival: 36.3344%
  replicate counts: 35 and 40 and 38
DLD1 BRCA2 -/- cells; [11]
  average: 21.6667
  percent suvival: 20.9003%
  replicate counts: 26 and 20 and 19
DLD1 BRCA2 -/- cells; [12]
  average: 13
  percent suvival: 12.5402%
  replicate counts: 10 and 16 and 13
DLD1 BRCA2 -/- cells; [13]
  average: 3.667
  percent suvival: 3.537%
  replicate counts: 7 and 2 (2×)
DLD1 BRCA2 -/- cells; [14]
  average: 80
  percent suvival: 77.1704%
  replicate counts: 82 and 80 and 78
DLD1 BRCA2 -/- cells; [15]
  average: 45.3333
  percent suvival: 43.7299%
  replicate counts: 49 and 42 and 45
DLD1 BRCA2 -/- cells; [16]
  average: 38
  percent suvival: 36.6559%
  replicate counts: 38 and 32 and 44
DLD1 BRCA2 -/- cells; [17]
  average: 19.6667
  percent suvival: 18.9711%
  replicate counts: 19 and 22 and 18
DLD1 BRCA2 -/- cells; [18]
  average: 7.333
  percent suvival: 7.074%
  replicate counts: 10 and 8 and 4
DLD1 BRCA2 -/- cells; [19]
  average: 1.667
  percent suvival: 1.608%
  replicate counts: 3 and 1 (2×)
DLD1 BRCA2 -/- cells; [20]
  average: 1
  percent suvival: 0.9646%
  replicate counts: 1 and 0 and 2
DLD1 BRCA2 -/- cells; [21]
  average: 73
  percent suvival: 70.418%
  replicate counts: 70 and 78 and 71
DLD1 BRCA2 -/- cells; clonogenic survival
  potency in BRCA2-null cells compared with RTx-161: moderately higher IC50
DLD1 BRCA2 -/- cells; clonogenic survival, Combenefit synergy
  combination with Olaparib: synergistic activity
DLD1 BRCA2 -/- cells; colony survival, versus BRCA2-WT
  selective killing / synthetic lethality in BRCA2-null DLD1 cells: selective killing; also recorded: induction of synthetic lethality
Polθ-pol
  IC50: 6 nM and 6.2 nM and 4 to 6 nM
DLD1 Parental cells; 2.5 micro M
  Average number of colonies counted: 115
  Normalized (colonies): 97.4576
DLD1 Parental cells; 5 micro M
  Normalized (colonies): 97.4576
DLD1 Parental cells; 10 micro M
  Normalized (colonies): 95.7627
DLD1 Parental cells; 20 micro M
  Average number of colonies counted: 113
  Normalized (colonies): 95.7627
LogP
  logP: 4.2
